Values of other authors, collected in patent publication US20200040275A1, “AVIATION FUEL WITH A RENEWABLE OXYGENATE” (Swift Fuels, LLC, priority 2014, published 2020).

Experiments:
[1] = SDS data from third-party compliance reports

Structure (SMILES) | OSHA Hazards [1] | water solubility [g/100 g] | LD50 (rat, oral) (rat) [mg/kg]
Cc1cccc(N)c1 [m-Toluidine] | Toxic. Causes cyanosis. | – | –
CCOC(C)(C)C [ETBE, ethyl tert-butyl ether] | Irritant | 1.2 | –
CC(C)c1ccc(N)cc1 (single isomer, unassigned) [Cumidine, 4-isopropylaniline] | Irritant. Causes respiratory | – | 757
